The text below walks through data of US8242151B2, “Tricyclic compounds” (Kyowa Hakko Kirin Co., Ltd., priority 2007, dated 2012).

By pEC50 is commonly meant −log10 of the EC50, conventionally taken in molar units. Read a high pEC50 as a small EC50.

pEC50: −log10 of the molar value.

The subject of assay [1] is spontaneously hypertensive rats (SHR). Put plainly: Antihypertensive action by tail cuff method. The assay is classed as in vivo, rat. As to conditions: oral once a day for 7 days, about 4 to 9 hr after final administration. Here is the method: 18- to 22-week-old spontaneously hypertensive rats (SHR) were used.
Before drug administration, the body weight, blood pressure and heart rate of each rat were measured, and the rats were grouped such that these values are almost the same between groups. A solvent (0.5% methylcellulose solution) and a test compound were repeatedly administered orally once a day for 7 days. At about 4 to 9 hr after the final administration, systolic blood pressure and heart rate were non-invasively measured according to the following.
The rats were placed in a cylindrical restrainer, heated to 37° C., and blood pressure and heart rate were measured under resting state using a Tail Cuff Method. For the measurement, a non-invasive blood pressure measurement apparatus (PS-600, Riken Kaihatsu, Tokyo) was used. The blood pressure and heart rate of each rat was measured 5 times, and the average was taken as the value of each rat.

Assay [2] has the same test system. Description: Antihypertensive action by telemetry method. It counts as in vivo, rat. To be noted: oral once a day for 4 days, 24 hr averages. An excerpt: A telemetry transmitter was indwelled in the abdominal artery of spontaneously hypertensive rats (SHR), and the blood pressure and heart rate were monitored. The rats were acclimated and reared for 4 weeks or more, and only the rats with hypertension were used for the test. Before drug administration, the rats were grouped such that the blood pressure and heart rate of each rat would be of the same levels between the groups. A solvent (0.5% methylcellulose solution) and a test compound were repeatedly administered orally once a day for 4 days. The average systolic blood pressure for 24 hr, average diastolic blood pressure for 24 hr and average heart rate for 24 hr were calculated on each administration day.

For assay [3], the target named is T1, GAL4-PPARγ chimeric nuclear receptor (human PPARγ ligand binding region) (Homo sapiens, UniProt P37231).
T1 construct: expressed in transfected cells; host or cells: HEK293EBNA cells
T1 sequence (P37231 174-475 isoform P37231-2): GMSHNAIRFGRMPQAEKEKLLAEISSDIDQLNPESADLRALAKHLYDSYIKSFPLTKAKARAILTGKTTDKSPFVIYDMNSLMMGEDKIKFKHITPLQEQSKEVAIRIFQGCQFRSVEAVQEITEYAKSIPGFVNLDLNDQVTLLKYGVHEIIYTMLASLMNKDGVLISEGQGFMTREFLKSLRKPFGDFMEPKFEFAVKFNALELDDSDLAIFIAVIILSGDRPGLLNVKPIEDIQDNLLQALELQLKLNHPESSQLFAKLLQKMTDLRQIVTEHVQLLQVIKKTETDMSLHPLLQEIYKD
Description: Transactivation assay of PPARγ by transient gene transfer (GAL4-PPARγ luciferase reporter). It counts as cell-based. As to conditions: HEK293EBNA cells, 24 hr; concentration showing 50% of efficacy; activity relative to pioglitazone 10 μmol/L = 100%. Here is the method:
The agonist activity of compound (I) to PPARγ was determined by a transactivation assay method using a chimeric nuclear receptor of a DNA binding region of a yeast transcription factor GAL4 and a PPARγ ligand binding region. Specifically, the PPARγ agonist activity of compound (I) was evaluated by the following method based on the method of Lehmann et al. (J Biol. Chem., 1995, vol. 270, page 12953).
HEK293EBNA cells cultured in Dulbecco's Modified Eagle medium (Invitrogen) containing 10 v/v % fetal calf serum (Invitrogen) were used. 30 mL of the above-mentioned cells (density: 1×10^5 cells/mL) were inoculated in a […] culture dish (Iwaki Glass), and cultured overnight. Using SuperFect Transfection Reagent (QIAGEN), a plasmid expressing a GAL4-PPARγ chimeric nuclear receptor fusing 174-475 amino acids, which are human PPARγ ligand binding region, and 1-147 amino acids, which are GAL4 DNA binding region, and a reporter plasmid expressing a GAL4 responsive luciferase were transiently introduced into the cells at a proportion of 4:1. After 5 hr from gene introduction, the cells were detached from the culture dish, and the detached cells (density: 2×10^4 cells/mL) were inoculated by 100 μL in each well of a 96 well white plate (SUMITOMO BAKELITE), and cultured overnight. The medium was removed, compound (I) diluted in various concentrations with serum-free Dulbecco's Modified Eagle medium was added by 100 μL, and the mixture was reacted under a 5% carbon dioxide gas stream (5% CO2) at 37° C. for 24 hr. On the other hand, as a positive control, 10 μmol/L of pioglitazone (100 μL) was added, and the mixture was reacted under a 5% carbon dioxide gas stream (5% CO2) at 37° C. for 24 hr. As a substrate of luciferase, 100 μL of Steady-Glo (Promega) was added to each well and the mixture was thoroughly stirred. Immediately thereafter, the chemical luminescence due to luciferase was measured using TopCount NTX (Packard).
The agonist activity (activity rate (%)) of compound (I) to PPARγ was calculated according to the following formula, as a relative activity when the agonist activity on addition of pioglitazone (10 μmol/L) was 100%.

In the case of `CCc1nc2c(C)ccnc2n1Cc1ccc2c(c1)CCc1ccccc1N2C(C)c1nnn[nH]1` (stereo not shown) [Compound 26, 2-(2-ethyl-7-methyl-3H-imidazo[4,5-b]pyridin-3-yl)methyl-5-[1-(1H-tetrazol-5-yl)ethyl]-10,11-dihydro-5H-dibenzo[b,f]azepine], the “antihypertensive action (systolic blood pressure, tail cuff)” value in assay [1] is “antihypertensive action”.
With `CCc1nc2c(C)cc(C)nc2n1Cc1ccc2c(c1)CCc1ccccc1/C2=C\c1noc(=O)[nH]1` [Compound 29, (E)-2-(2-ethyl-5,7-dimethyl-3H-imidazo[4,5-b]pyridin-3-yl)methyl-5-(5-oxo-4,5-dihydro-1,2,4-oxadiazol-3-yl)methylene-10,11-dihydro-5H-dibenzo[a,d]cycloheptene], in assay [2], the “antihypertensive action (blood pressure, telemetry)” value is reported as “antihypertensive action”. Also, the pEC50 in assay [3] is 6.49. Besides, the “antihypertensive action (systolic blood pressure, tail cuff)” value in assay [1] is “antihypertensive action”.
`CCc1nc2c(C)ccnc2n1Cc1ccc2c(c1)CCc1ccccc1/C2=C(/C)c1noc(=O)[nH]1` [Compound 42, (E)-2-(2-ethyl-7-methyl-3H-imidazo[4,5-b]pyridin-3-yl)methyl-5-[1-(5-oxo-4,5-dihydro-1,2,4-oxadiazol-3-yl)ethylidene]-10,11-dihydro-5H-dibenzo[a,d]cycloheptene]: in assay [2], the “antihypertensive action (blood pressure, telemetry)” value is recorded as “antihypertensive action”. Further, the pEC50 in assay [3] was 5.99. In addition, the “antihypertensive action (systolic blood pressure, tail cuff)” value in assay [1] is on record as “antihypertensive action”.
Regarding `CCc1nc2c(Cl)cc(C)nc2n1Cc1ccc2c(c1)CCc1ccccc1/C2=C(/C)c1noc(=O)[nH]1` [Compound 44, (E)-2-(7-chloro-2-ethyl-5-methyl-3H-imidazo[4,5-b]pyridin-3-yl)methyl-5-[1-(5-oxo-4,5-dihydro-1,2,4-oxadiazol-3-yl)ethylidene]-10,11-dihydro-5H-dibenzo[a,d]cycloheptene], in assay [2], the “antihypertensive action (blood pressure, telemetry)” value is reported as “antihypertensive action”. The molecule further showed a pEC50 in assay [3] of 6.11. The “antihypertensive action (systolic blood pressure, tail cuff)” value in assay [1] is listed as “antihypertensive action”.
As to `CCOc1nc2c(C)cc(C)nc2n1Cc1ccc2c(c1)CCc1ccccc1/C2=C(/C)c1noc(=O)[nH]1` [Compound 86, (E)-2-(2-ethoxy-5,7-dimethyl-3H-imidazo[4,5-b]pyridin-3-yl)methyl-5-[1-(5-oxo-4,5-dihydro-1,2,4-oxadiazol-3-yl)ethylidene]-10,11-dihydro-5H-dibenzo[a,d]cycloheptene], in assay [2], the “antihypertensive action (blood pressure, telemetry)” value is recorded as “antihypertensive action”. Moreover, the pEC50 in assay [3] was 6.49.
Regarding `C/C(=C1/c2ccccc2CCc2cc(Cn3c(C4CC4)nc4c(C)ccnc43)ccc21)c1nnn[nH]1` [Compound 100, (E)-2-(2-cyclopropyl-7-methyl-3H-imidazo[4,5-b]pyridin-3-yl)methyl-5-[1-(1H-tetrazol-5-yl)ethylidene]-10,11-dihydro-5H-dibenzo[a,d]cycloheptene], in assay [2], the “antihypertensive action (blood pressure, telemetry)” value is reported as “antihypertensive action”. In addition, the pEC50 in assay [3] is 5.99.
The like results for `CCc1nc2c(C)cc(C)nc2n1Cc1ccc2c(c1)COc1ccccc1/C2=C\c1noc(=O)[nH]1` [Compound 118, (Z)-8-(2-ethyl-5,7-dimethyl-3H-imidazo[4,5-b]pyridin-3-yl)methyl-11-(5-oxo-4,5-dihydro-1,2,4-oxadiazol-3-yl)methylene-6,11-dihydrodibenzo[b,e]oxepine] were, in that order, “antihypertensive action” and 6.46.
Take `CCOc1nc2c(C)cc(C)nc2n1Cc1ccc2c(c1)COc1ccccc1/C2=C\c1noc(=O)[nH]1` [Compound 124, (Z)-8-(2-ethoxy-5,7-dimethyl-3H-imidazo[4,5-b]pyridin-3-yl)methyl-11-(5-oxo-4,5-dihydro-1,2,4-oxadiazol-3-yl)methylene-6,11-dihydrodibenzo[b,e]oxepine]: the “antihypertensive action (blood pressure, telemetry)” value in assay [2] is listed as “antihypertensive action”. This molecule had a negative-log EC50 (pEC50) in assay [3] of 6.49.
On to `CCc1nc2c(Cl)cc(C)nc2n1Cc1ccc2c(c1)COc1ccccc1/C2=C(/C)c1noc(=O)[nH]1` [Compound 129, (Z)-8-(7-chloro-2-ethyl-5-methyl-3H-imidazo[4,5-b]pyridin-3-yl)methyl-11-[1-(5-oxo-4,5-dihydro-1,2,4-oxadiazol-3-yl)ethylidene]-6,11-dihydrodibenzo[b,e]oxepine], for which the “antihypertensive action (blood pressure, telemetry)” value in assay [2] is given as “antihypertensive action”. Besides, the pEC50 in assay [3] was 6.21.
The like results for `CCOc1nc2c(Cl)ccnc2n1Cc1ccc2c(c1)COc1ccccc1/C2=C(/C)c1noc(=O)[nH]1` [Compound 138, (Z)-8-(7-chloro-2-ethoxy-3H-imidazo[4,5-b]pyridin-3-yl)methyl-11-[1-(5-oxo-4,5-dihydro-1,2,4-oxadiazol-3-yl)ethylidene]-6,11-dihydrodibenzo[b,e]oxepine] were, in that order, “antihypertensive action” and 6.26.
Regarding `C/C(=C1\c2ccc(Cn3c(C4CC4)nc4c(Cl)ccnc43)cc2COc2ccccc21)c1noc(=O)[nH]1` [Compound 139, (Z)-8-(7-chloro-2-cyclopropyl-3H-imidazo[4,5-b]pyridin-3-yl)methyl-11-[1-(5-oxo-4,5-dihydro-1,2,4-oxadiazol-3-yl)ethylidene]-6,11-dihydrodibenzo[b,e]oxepine], the “antihypertensive action (systolic blood pressure, tail cuff)” value in assay [1] is listed as “antihypertensive action”.
Regarding `CCOc1nc2c(Cl)cccc2n1Cc1ccc2c(c1)COc1ccccc1/C2=C(/C)c1noc(=O)[nH]1` [Compound 146, (Z)-8-(4-chloro-2-ethoxybenzimidazol-1-yl)methyl-11-[1-(5-oxo-4,5-dihydro-1,2,4-oxadiazol-3-yl)ethylidene]-6,11-dihydrodibenzo[b,e]oxepine], in assay [2], the “antihypertensive action (blood pressure, telemetry)” value is listed as “antihypertensive action”. In assay [3], this molecule showed a pEC50 of 6.47.
The like results for `C/C(=C1\c2ccc(Cn3c(C4CC4)nc4c(Cl)cccc43)cc2COc2ccccc21)c1noc(=O)[nH]1` [Compound 147, (Z)-8-(4-chloro-2-cyclopropylbenzimidazol-1-yl)methyl-11-[1-(5-oxo-4,5-dihydro-1,2,4-oxadiazol-3-yl)ethylidene]-6,11-dihydrodibenzo[b,e]oxepine] were, in that order, “antihypertensive action” and 6.65.
The like results for `CCc1nc2c(C)cc(C)nc2n1Cc1ccc2c(c1)CCc1ccccc1C2=CC#N` [Compound S15, [2-(2-ethyl-5,7-dimethyl-3H-imidazo[4,5-b]pyridin-3-yl)methyl-10,11-dihydro-5H-dibenzo[a,d]cyclohepten-5-ylidene]acetonitrile] were, in that order, “antihypertensive action” and 5.90.
For the molecule `CCc1nc2c(C)cc(C)nc2n1Cc1ccc2c(c1)CCc1ccccc1/C2=C\c1nnn[nH]1` [Compound S16, (E)-2-(2-ethyl-5,7-dimethyl-3H-imidazo[4,5-b]pyridin-3-yl)methyl-5-(1H-tetrazol-5-yl)methylene-10,11-dihydro-5H-dibenzo[a,d]cycloheptene], in assay [2], the “antihypertensive action (blood pressure, telemetry)” value is listed as “antihypertensive action”. In assay [3], this molecule showed a pEC50 of 6.52.
